Measurements as given in patent US10765114B2, “4-amino-6-(pyridyl and 2-substitutedphenyl)-picolinates and 6-amino-2-(pyridyl and 2-substitutedphenyl)-pyrimidine-4-carboxylates and their use as herbicides” (Dow AgroSciences LLC, priority 2013, dated 2020).
Where two headings read alike, the source gives them in different places.

Legend:
[1] = system: Key Grass and Sedge Weeds as well as Grass Crops; assay: Post-Emergent Test II (Table 6); format: in vivo; conditions: post-emergence, 336 h, 14 days after application; for pest or weed control at 70 g/ha: 70 g ai/ha; for pest or weed control at 140 g/ha: 140 g ai/ha
Summary of the method: (§1)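 Visual injury ratings (0 = no injury, 100 = complete kill) taken 14 days after treatment, relative to untreated controls. Compounds, in an acetone/DMSO aqueous carrier with crop oil and surfactant, were applied by track sprayer at 187 L/ha, in a twofold dilution series from the top rate, to plants at the first to second true-leaf stage.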

[2] = system: Key Broadleaf Weed and Crop Species; assay: Post-Emergent Test II (Table 5); format: in vivo; conditions: post-emergence, 336 h; for pest or weed control at 70 g/ha: application rate 70 (kg ai/ha; footnote: g ai/ha); for pest or weed control at 140 g/ha: application rate 140 (kg ai/ha; footnote: g ai/ha)
Summary of the method: as §1

[3] = CYPSS, read-out: Visual Growth Reduction (%) 14 Days After Application CYPSS
[4] = DIGSA: crabgrass (Digitaria sanguinalis), read-out: Visual Growth Reduction (%) 14 Days After Application DIGSA
[5] = ECHSS, read-out: Visual Growth Reduction (%) 14 Days After Application ECHSS
[6] = ORYSS (crop), read-out: Visual Growth Reduction (%) 14 Days After Application ORYSS
[7] = SETFA: giant foxtail (Setaria faberi), read-out: Visual Growth Reduction (%) 14 Days After Application SETFA
[8] = SORVU: grain sorghum (Sorghum vulgare), read-out: Visual Growth Reduction (%) 14 Days After Application SORVU
[9] = TRZSS (crop), read-out: Visual Growth Reduction (%) 14 Days After Application TRZSS
[10] = ZEAMX: maize, corn (Zea mays), read-out: Visual Growth Reduction (%) 14 Days After Application ZEAMX
[11] = Abutilon theophrasti, ABUTH: velvetleaf (Abutilon theophrasti), read-out: Visual Growth Reduction (%) 14 Days After Application ABUTH
[12] = Amaranthus retroflexus, AMARE: redroot pigweed (Amaranthus retroflexus), read-out: Visual Growth Reduction (%) 14 Days After Application AMARE
[13] = Brassica napus, BRSSS: oilseed rape, canola (Brassica napus), read-out: Visual Growth Reduction (%) 14 Days After Application BRSSS
[14] = Chenopodium album, CHEAL: lambsquarters (Chenopodium album), read-out: Visual Growth Reduction (%) 14 Days After Application CHEAL
[15] = Euphorbia heterophylla, EPHHL: wild poinsettia (Euphorbia heterophylla), read-out: Visual Growth Reduction (%) 14 Days After Application EPHHL
[16] = Helianthus annuus, HELAN: sunflower (Helianthus annuus), read-out: Visual Growth Reduction (%) 14 Days After Application HELAN
[17] = Viola tricolor, VIOTR: wild pansy (Viola tricolor), read-out: Visual Growth Reduction (%) 14 Days After Application VIOTR

| SMILES | pest or weed control at 70 g/ha [1, 3] [%] | pest or weed control at 140 g/ha [1, 3] [%] | pest or weed control at 70 g/ha [1, 4] [%] | pest or weed control at 140 g/ha [1, 4] [%] | pest or weed control at 70 g/ha [1, 5] [%] | pest or weed control at 140 g/ha [1, 5] [%] | pest or weed control at 70 g/ha [1, 6] [%] | pest or weed control at 140 g/ha [1, 6] [%] | pest or weed control at 70 g/ha [1, 7] [%] | pest or weed control at 140 g/ha [1, 7] [%] | pest or weed control at 70 g/ha [1, 8] [%] | pest or weed control at 140 g/ha [1, 8] [%] | pest or weed control at 70 g/ha [1, 9] [%] | pest or weed control at 140 g/ha [1, 9] [%] | pest or weed control at 70 g/ha [1, 10] [%] | pest or weed control at 140 g/ha [1, 10] [%] | pest or weed control at 70 g/ha [2, 11] [%] | pest or weed control at 140 g/ha [2, 11] [%] | pest or weed control at 70 g/ha [2, 12] [%] | pest or weed control at 140 g/ha [2, 12] [%] | further results |
| --- | --- | --- | --- | --- | --- | --- | --- | --- | --- | --- | --- | --- | --- | --- | --- | --- | --- | --- | --- | --- | --- |
| Nc1cc(-c2ccc(Cl)c(F)c2CO)nc(C(=O)O)c1Cl [Compound 11, 4-Amino-3-chloro-6-(4-chloro-3-fluoro-2-(hydroxymethyl)phenyl)picolinic acid] | 0 to 29 | 0 to 29 | 0 to 29 | 0 to 29 | 0 to 29 | 0 to 29 | 0 to 29 | 0 to 29 | 0 to 29 | 0 to 29 | 0 to 29 | 0 to 29 | 0 to 29 | 0 to 29 | 0 to 29 | 0 to 29 | 0 to 29 | 0 to 29 | 0 to 29 | 0 to 29 | pest or weed control at 70 g/ha [2, 13]: 0 to 29%; pest or weed control at 140 g/ha [2, 13]: 0 to 29%; pest or weed control at 70 g/ha [2, 14]: 0 to 29%; pest or weed control at 140 g/ha [2, 14]: 75 to 84%; pest or weed control at 70 g/ha [2, 15]: 0 to 29%; pest or weed control at 140 g/ha [2, 15]: 0 to 29%; pest or weed control at 70 g/ha [2, 16]: 0 to 29%; pest or weed control at 140 g/ha [2, 16]: 0 to 29%; pest or weed control at 70 g/ha [2, 17]: 0 to 29%; pest or weed control at 140 g/ha [2, 17]: 0 to 29% |
| COC(=O)c1nc(-c2ccc(Cl)nc2F)cc(N)c1Cl [Compound 17, methyl 4-amino-5,6′-dichloro-2′-fluoro-[2,3′-bipyridine]-6-carboxylate] | 60 to 74 | 75 to 84 | 0 to 29 | 0 to 29 | 60 to 74 | 85 to 94 | 0 to 29 | 0 to 29 | 0 to 29 | 0 to 29 | 0 to 29 | 30 to 44 | 0 to 29 | 0 to 29 | 0 to 29 | 30 to 44 | 95 to 100 | 95 to 100 | 95 to 100 | 95 to 100 | pest or weed control at 70 g/ha [2, 13]: 0 to 29%; pest or weed control at 140 g/ha [2, 13]: 30 to 44%; pest or weed control at 70 g/ha [2, 14]: 95 to 100%; pest or weed control at 140 g/ha [2, 14]: 95 to 100%; pest or weed control at 70 g/ha [2, 15]: 0 to 29%; pest or weed control at 140 g/ha [2, 15]: 45 to 59%; pest or weed control at 70 g/ha [2, 16]: 60 to 74%; pest or weed control at 140 g/ha [2, 16]: 75 to 84%; pest or weed control at 70 g/ha [2, 17]: 60 to 74%; pest or weed control at 140 g/ha [2, 17]: 60 to 74% |
